Test results published in patent publication US5493007A, “Platelet aggregation inhibitors having high specificity for GPIIBIIIA” (Genentech, Inc., priority 1994, dated 1996).
Values joined by “and” are separate entries in the source; they are usually repeats but may differ in a detail not shown here. Equal entries are not always repeated. Where a SMILES comes first, the peptide text is derived from it. Bridges are numbered along the chain shown (N, C = ends). [ ]: non-standard residue; d: D form.

Legend:
[1] = system: platelet rich plasma (PRP); experiment: Rabbit ex-vivo platelet aggregation (XPA), ADP-induced; assay type: in vivo; conditions: Example 1
Procedure: Catheters are flushed and locked after every sample.
[…] of PRP is placed in a disposable glass cuvette with a stir bar. The cuvette is placed in the temperature regulated light path of a light transmittance aggregometer (Chrono-log) and equilibrated to a 37° C. Baseline transmittance is recorded for 30 seconds, after which […] of ADP (1 mM) is added and the change in transmittance recorded. The maximum change from baseline (dT) is noted for each sample. The extent of inhibition of XPA that is produced by an inhibitor is calculated for each animal as follows: Mean dTs are calculated for the pre and post infusion values, and then, percent inhibition is calculated as (1-dt (post)/ddt (pre))×100.

[2] = target: human platelet rich plasma (PRP) (Homo sapiens, UniProt P05106+P08514); experiment: In Vitro Human Platelet Aggregation Assay; assay type: cell-based; conditions: human PRP; read-out: Human Platelet Aggregation IC50
Sequence of human platelet rich plasma (PRP) (P08514 32-1039): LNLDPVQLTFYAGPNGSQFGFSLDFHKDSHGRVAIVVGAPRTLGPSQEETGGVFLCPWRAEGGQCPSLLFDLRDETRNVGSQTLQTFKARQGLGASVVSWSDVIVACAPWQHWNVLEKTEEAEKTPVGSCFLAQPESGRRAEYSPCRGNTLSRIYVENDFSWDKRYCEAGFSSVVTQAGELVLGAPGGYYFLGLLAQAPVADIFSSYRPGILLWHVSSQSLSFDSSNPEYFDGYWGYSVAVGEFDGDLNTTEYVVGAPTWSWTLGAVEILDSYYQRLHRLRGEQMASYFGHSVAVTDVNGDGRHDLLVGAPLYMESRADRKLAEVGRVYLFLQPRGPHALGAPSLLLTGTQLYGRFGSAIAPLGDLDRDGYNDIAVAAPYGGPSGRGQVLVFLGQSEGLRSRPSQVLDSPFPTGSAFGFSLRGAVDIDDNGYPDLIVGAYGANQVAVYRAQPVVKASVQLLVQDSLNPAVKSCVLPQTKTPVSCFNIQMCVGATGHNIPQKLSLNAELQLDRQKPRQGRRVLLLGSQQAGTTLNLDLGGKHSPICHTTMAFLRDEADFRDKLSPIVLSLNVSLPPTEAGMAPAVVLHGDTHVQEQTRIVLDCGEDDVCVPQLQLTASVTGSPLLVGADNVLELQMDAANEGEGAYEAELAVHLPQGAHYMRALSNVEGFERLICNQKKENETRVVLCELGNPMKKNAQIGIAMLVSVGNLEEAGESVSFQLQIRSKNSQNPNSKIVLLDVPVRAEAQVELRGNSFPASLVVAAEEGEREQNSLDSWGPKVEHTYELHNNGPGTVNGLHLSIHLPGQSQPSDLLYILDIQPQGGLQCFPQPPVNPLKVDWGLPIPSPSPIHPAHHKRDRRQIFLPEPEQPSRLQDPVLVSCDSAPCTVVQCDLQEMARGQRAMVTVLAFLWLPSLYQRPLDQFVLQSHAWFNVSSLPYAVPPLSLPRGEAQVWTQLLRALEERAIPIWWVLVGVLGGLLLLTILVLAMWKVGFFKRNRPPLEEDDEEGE
Sequence of human platelet rich plasma (PRP) (P05106 27-788): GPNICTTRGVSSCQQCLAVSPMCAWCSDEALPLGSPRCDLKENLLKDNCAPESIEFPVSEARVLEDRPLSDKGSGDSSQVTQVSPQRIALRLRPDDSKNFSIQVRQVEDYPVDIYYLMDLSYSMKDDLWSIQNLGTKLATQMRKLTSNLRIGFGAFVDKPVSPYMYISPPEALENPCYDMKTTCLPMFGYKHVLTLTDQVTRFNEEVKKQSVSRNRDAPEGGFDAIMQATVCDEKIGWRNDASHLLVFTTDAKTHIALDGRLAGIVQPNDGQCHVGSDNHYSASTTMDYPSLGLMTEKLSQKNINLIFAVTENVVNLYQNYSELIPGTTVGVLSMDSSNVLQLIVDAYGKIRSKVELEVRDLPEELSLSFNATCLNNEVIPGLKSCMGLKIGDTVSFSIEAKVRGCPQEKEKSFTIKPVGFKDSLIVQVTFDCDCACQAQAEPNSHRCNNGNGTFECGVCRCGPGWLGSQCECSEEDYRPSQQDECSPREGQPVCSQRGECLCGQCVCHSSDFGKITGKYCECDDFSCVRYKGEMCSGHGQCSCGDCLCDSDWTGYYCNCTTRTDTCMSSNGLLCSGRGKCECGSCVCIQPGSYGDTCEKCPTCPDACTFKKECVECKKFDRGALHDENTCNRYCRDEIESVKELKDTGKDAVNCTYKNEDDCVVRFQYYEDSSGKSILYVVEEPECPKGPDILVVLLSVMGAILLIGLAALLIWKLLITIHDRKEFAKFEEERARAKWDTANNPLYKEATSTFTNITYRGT
Outline: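 Citrated human PRP, diluted with PPP to about 300,000 platelets/μl from donors free of aspirin for two weeks, was preincubated with inhibitor or PBS for 5 minutes at 25° C. Aggregation was then triggered by collagen 1 μg/ml, U46619 100 ng/ml or ADP 17 μM and followed by light transmission.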

Beagle dogs = experiment: Bleeding time, dog model; assay type: in vivo
Procedure: (§1) Beagle dogs were premedicated with atropine (3 mg subcutaneously) and anesthetized with intravenous sodium pentobarbital solution (65 mg/ml, to effect, induction and maintenance). The dogs were placed in dorsal recumbency on heating pads, intubated, and placed on oxygen-room air mixture (free breathing). A pulse oximeter was attached and heart rate and oxygen saturation monitored. An indwelling catheter was placed in one cephalic vein through which normal saline drip (for patency) and maintenance anesthetic doses were administered, and in one saphenous vein through which test or control compound was bolused or infused.
At several timepoints bleeding times were measured. The forearm of the dog was closely shaven. A Surgicutt® automatic bleeding time device was employed to make an approximate 1 cm clean incision through the skin. Blood was blotted with the edge of a Whatman's #4 filter paper every 15 seconds. Bleeding time was measured as the time from incision to the last time blood was absorbed by the filter paper.

[3] = system: platelet rich plasma (PRP); experiment: Ex vivo platelet aggregation, dog model; assay type: in vivo
Procedure: as §1
At each proscribed time point a 5 ml whole blood sample was withdrawn via jugular venipuncture for ex vivo platelet aggregation and complete blood cell count. Manual pressure was applied to the venipuncture site following blood withdrawal to minimize hematoma formation.
Approximately one ml of blood withdrawn at each timepoint was placed on EDTA (purple-top vacutainer) and used to measure the complete blood cell count on a Cell-Dyne 1500 automated hematology analyzer. 3.6 ml of blood withdrawn at each timepoint was placed on a 3.8% sodium citrate (1 part to 9 parts blood) and centrifuged at 12,000 rpm for 4 seconds in an Eppendorf microcentrifuge. The resultant platelet rich plasma (PRP) was pipetted off for use in ex vivo aggregation procedures.
Platelet aggregation was measured in a Payton dual-channel aggregometer. The equipment was calibrated with PRP assigned as 0% light transmission and PPP as 100% light transmission. PRP was allowed to rest at room temperature for 20 minutes following separation from whole blood. […] PRP was incubated at 37° C. in the aggregometer for approximately 5 minutes with the chart recorder on to establish a baseline. […] ADP (1 mM) was added to the PRP and the aggregation response (change in light transmission) recorded. An aliquot of the PRP was used to perform a platelet count on the Cell-Dyne 1500 automated hematology analyzer. [drawing 50] Example 7, Compound 1

[4] = 300 μg/kg bolus plus an infusion of 7.2 μg/kg/min

| Structure (SMILES) | Rabbit % P.A. Inhibition (ex vivo) [1] | IC50 [2] [nM] | bleeding time, result in words (Beagle dogs; [4]) | inhibition of ex vivo aggregation [3, 4] [%] | bleeding time during the infusion (Beagle dogs; dose printed for 7/46: bolus 125 μg/kg plus 3 μg/kg/min, 7/1 value is a mean) [min] | inhibition of ex vivo aggregation ([3]; bolus of 125 μg/kg plus an infusion of 3 μg/kg/min, throughout the infusion period) [%] |
| --- | --- | --- | --- | --- | --- | --- |
| N=C(N)NCCC[C@@H]1NC(=O)[C@@H](Cc2ccc(O)cc2)NC(=O)CSC[C@@H](C(=O)N[C@@H](CCCCN)C(N)=O)NC(=O)[C@H](CC(=O)O)NC(=O)CNC1=O [7/3, cyclo-S-acetyl-dTyr--Arg--Gly--Asp--Cys--Lys--NH2] ({CH2CO}-[dY]RGDCK-NH2; thioether N-5) | 97% | 320 | without prolongation of the bleeding time | > 95 | – | – |
| N=C(N)NCCC[C@@H]1NC(=O)[C@@H](Cc2ccc(O)cc2)NC(=O)CSC[C@@H](C(=O)O)NC(=O)[C@H](CC(=O)O)NC(=O)CNC1=O [7/46, cyclo-S-acetyl-dTyr--Arg--Gly--Asp--Cys--OH] ({CH2CO}-[dY]RGDC-OH; thioether N-5) | 99% and 55% | 150 | – | – | > 30 | 100 |
